Experimental findings from US8987195B2 (priority 2012, dated 2015) are described below.

Assay [1] has as its target HCV NS3/4A protease genotype 1b (Hepatitis C virus genotype 1b, UniProt P26663). The experiment in a line: HCV NS3/4A protease time-resolved fluorescence (TRF) assay, Ki against genotype 1b. It is filed as biochemical. Summed up:
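Enzyme was pre-incubated 30 min with inhibitor in HEPES pH 7.5 buffer (150 mM NaCl, 15% glycerol, 10 mM DTT). Reaction ran 2.5 h at room temperature with 25 nM europium TRF peptide substrate, read at ex 340/em 615 nm. Enzyme levels: 0.2 nM (1b), 0.4 nM (A156T), 0.025 nM (3a). Ki came from four-parameter IC50 via IC50=Ki(1+[S]/KM).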

In assay [2] the target is HCV NS3/4A protease A156T mutant (Hepatitis C virus genotype 1b, UniProt P26663, A1182T). The experiment in a line: HCV NS3/4A protease time-resolved fluorescence (TRF) assay, Ki against A156T mutant. The class given is biochemical. As for the experimental part: (§1) Measuring NS3/4A Inhibitory Activity (Ki) Against Genotype 1b, Against A156T Mutants and Against Genotype 3a
(§2) One assay for measuring inhibitory activity is HCV NS3 protease time-resolved fluorescence (TRF) assay as described below and in Mao et al., Anal. Biochem. 373:1-8, 2008 and International Patent Application Publication WO 2006/102087. A NS3 protease assay can be performed, for example, in a final volume of 20 μl assay buffer containing 50 mM HEPES, pH 7.5, 150 mM NaCl, 15% glycerol, 0.15% TRITON X-100, 10 mM DTT, and 0.1% PEG 8000. NS3 and NS4A protease is pre-incubated with various concentrations of inhibitors in DMSO for 30 min. The reaction is initiated by adding the TRF peptide substrate (final concentration 25 nM). NS3 mediated hydrolysis of the substrate was run for 2.5 hours at room temperature. Product fluorescence is detected using A Pherastar Plus plate reader (BMG) or Envision (Perkin Elmer Life and Analytical Sciences with excitation at 340 nm and emission at 615 nm using the appropriate delay time optimized for the europium fluorescence probe. Testing concentrations of different enzyme forms are selected to result in a signal to background ratio (S/B) of 10-30. IC50 values are derived using a standard four-parameter fit to the data. Ki values are derived from IC50 values using the following formula, IC50=Ki(1+[S]/KM), Eqn (1), where [S] is the concentration of substrate peptide in the reaction and KM is the Michaelis constant. See P. Gallinari et al., 38 BIOCHEM. 5620-32 (1999); P. Gallinari et al., 72 J. VIROL. 6758-69 (1998); M. Taliani et al., 240 ANAL. BIOCHEM. 60-67 (1996); Mao et al., Analytical Biochemistry 373: 1-8, 2008.
(§3) The assay described above was run against genotype 1b at a concentration of 0.2 nM, against A156T mutant strains at a concentration of 0.4 nM, and against genotype 3a at a concentration of 0.025 nM.

In assay [3] the target is HCV NS3/4A protease genotype 3a (Hepatitis C virus genotype 3a, UniProt Q81495). The assay is described as follows: HCV NS3/4A protease time-resolved fluorescence (TRF) assay, Ki against genotype 3a. It is filed as biochemical. As for the experimental part:
as §1, §2, §3

Another assay deals with HCV genotype 1b replicon. The experiment in a line: HCV replicon assay, genotype 1b replicon EC50. The class given is cell-based, Hepatitis C virus. Conditions: Hepatitis C virus, read-out: EC50 [gt-1b]. Put shortly: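 Stable neomycin phosphotransferase-encoding replicon cell lines, kept under G418 selection beforehand, were plated with a compound dilution series without G418 and incubated 24-48 hours. Replicon RNA was then quantified, or luciferase activity read. EC50 was calculated as percent of DMSO control by four-parameter fit.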
A general note: In antiviral work, replicon cells carry a viral genome segment that copies itself.

The mark [4] stands for this setting: IC50 [gt-1b], NS3/4A protease TRF assay, genotype 1b enzyme 0.2 nM, K+ salt.
The mark [5] stands for this setting: NS3/4A protease TRF assay, A156T mutant enzyme 0.4 nM, K+ salt, read-out: IC50 [gt-1b A156T].
Where [6] appears, read: HCV replicon, genotype 1b, K+ salt.
The mark [7] stands for this setting: IC50 [gt-1b], NS3/4A protease TRF assay, genotype 1b enzyme 0.2 nM.
Where [8] appears, read: NS3/4A protease TRF assay, A156T mutant enzyme 0.4 nM, read-out: IC50 [gt-1b A156T].
Where [9] appears, read: IC50 [gt-1b] (nM), NS3/4A genotype 1b, enzyme 0.2 nM.

Where two headings read alike, the source gives them in different places.

In the case of `COc1ccc2nc(C)c3c(c2c1)[C@H](F)C[C@]1(C[C@H]2C(=O)N[C@]4(C(=O)NS(=O)(=O)C5(C)CC5)C[C@H]4/C=C\CCCCC[C@H](NC(=O)OCC(C)(C)F)C(=O)N2C1)O3` [Example 370, 2-fluoro-2-methylpropyl [(1′R,2S,6S,12Z,13aS,14aR,16aS)-1′-fluoro-9′-methoxy-5′-methyl-14a-{[(1-methylcyclopropyl)sulfonyl]carbamoyl}-5,16-dioxo-1,1′,2′,5,6,7,8,9,10,11,13a,14,14a,15,16,16a-hexadecahydrospiro[cyclopropa[e]pyrrolo[1,2-a][1,4]diazacyclopentadecine-2,3′-pyrano[2,3-c]quinolin]-6-yl]carbamate], the IC50 (in general, the midpoint of a concentration-inhibition curve) in assay [1] (setting [4]) was found to be 0.009 nM; in assay [2] (setting [5]) it was 0.037 nM; in assay [3], 0.149 nM. In addition, in the assay with HCV genotype 1b replicon (setting [6]), the EC50 (as a rule, the concentration giving half of the maximal effect) worked out at 8.56 nM.
Turning to `CCc1nc2ccc(OCCCN3CCOCC3)cc2c2c1O[C@]1(CC2)C[C@H]2C(=O)N[C@]3(C(=O)NS(=O)(=O)C4(C)CC4)C[C@H]3/C=C\CCCCC[C@H](NC(=O)OC(C)(C)C)C(=O)N2C1` [Example 514, tert-butyl {(2R,6S,12Z,13aS,14aR,16aS)-5′-ethyl-14a-{[(1-methylcyclopropyl)sulfonyl]carbamoyl}-9′-[3-(morpholin-4-yl)propoxy]-5,16-dioxo-1,1′,2′,5,6,7,8,9,10,11,13a,14,14a,15,16,16a-hexadecahydrospiro[cyclopropa[e]pyrrolo[1,2-a][1,4]diazacyclopentadecine-2,3′-pyrano[2,3-c]quinolin]-6-yl}carbamate], the IC50 in assay [1] (setting [7]) turned out to be 0.012 nM; in assay [2] (setting [8]) it was 0.0681 nM; in assay [3], 0.224 nM. The EC50 with HCV genotype 1b replicon (HCV replicon, genotype 1b) turned out to be 0.668 nM.
Take `Cc1nc2ccc(C(F)(F)F)cc2c2c1O[C@]1(CC2)C[C@H]2C(=O)N[C@]3(C(=O)NS(=O)(=O)C4(C)CC4)C[C@H]3/C=C\CCCCC[C@H](NC(=O)OCC(C)(C)C)C(=O)N2C1` [Example 255, 2,2-dimethylpropyl [(2R,6S,12Z,13aS,14aR,16aS)-5′-methyl-14a-{[(1-methylcyclopropyl)sulfonyl]carbamoyl}-5,16-dioxo-9′-(trifluoromethyl)-1,1′,2′,5,6,7,8,9,10,11,13a,14,14a,15,16,16a-hexadecahydrospiro[cyclopropa[e]pyrrolo[1,2-a][1,4]diazacyclopentadecine-2,3′-pyrano[2,3-c]quinolin]-6-yl]carbamate]: the IC50 in assay [1] (setting [9]) was determined as 0.015 nM; in assay [2] (NS3/4A gt-1b A156T mutant, enzyme 0.4 nM, read-out: IC50 [gt-1b A156T]) it was 0.679 nM; in assay [3] it was 2.86 nM. Also, the EC50 in the assay on HCV genotype 1b replicon (genotype 1b replicon) was found to be 50.9 nM.
With `COc1ccc2nc(C(F)(F)F)c3c(c2c1)CC[C@]1(C[C@H]2C(=O)N[C@]4(C(=O)NS(=O)(=O)C5(C)CC5)C[C@H]4/C=C\CCCCC[C@H](NC(=O)OC4CCOC4)C(=O)N2C1)O3` (stereo partly drawn) [Example 481, tetrahydrofuran-3-yl [(2R,6S,12Z,13aS,14aR,16aS)-9′-methoxy-14a-{[(1-methylcyclopropyl)sulfonyl]carbamoyl}-5,16-dioxo-5′-(trifluoromethyl)-1,1′,2′,5,6,7,8,9,10,11,13a,14,14a,15,16,16a-hexadecahydrospiro[cyclopropa[e]pyrrolo[1,2-a][1,4]diazacyclopentadecine-2,3′-pyrano[2,3-c]quinolin]-6-yl]carbamate], the results for the IC50 in assay [1] (setting [4]), in assay [2] (setting [5]) and in assay [3] were 0.006 nM, 0.436 nM and 0.225 nM, respectively. The EC50 in the assay with HCV genotype 1b replicon (setting [6]) came out at 1.31 nM.
On to `CCc1nc2ccc(OC)cc2c2c1O[C@]1(CC2)C[C@H]2C(=O)N[C@]3(C(=O)NS(=O)(=O)C4(C)CC4)C[C@H]3/C=C\CCCCC[C@H](NC(=O)c3cn[nH]c3)C(=O)N2C1` [Example 482, (2R,6S,12Z,13aS,14aR,16aS)-5′-ethyl-9′-methoxy-N-[(1-methylcyclopropyl)sulfonyl]-5,16-dioxo-6-[(1H-pyrazol-4-ylcarbonyl)amino]-1,1′,2′,6,7,8,9,10,11,13a,14,15,16,16a-tetradecahydrospiro[cyclopropa[e]pyrrolo[1,2-a][1,4]diazacyclopentadecine-2,3′-pyrano[2,3-c]quinoline]-14a(5H)-carboxamide], for which the results for the IC50 in assay [1] (setting [7]), in assay [2] (setting [8]) and in assay [3] were 0.008 nM, 0.101 nM and 0.418 nM, respectively. The EC50 in the assay on HCV genotype 1b replicon (HCV replicon, genotype 1b) amounted to 68.6 nM.
Turning to `COc1ccc2nc(C(F)(F)F)c3c(c2c1)CC[C@]1(C[C@H]2C(=O)N[C@]4(C(=O)NS(=O)(=O)C5(C)CC5)C[C@H]4/C=C\CCCCC[C@H](NC(=O)OC4(C)CCC4)C(=O)N2C1)O3` [Example 451, 1-methylcyclobutyl [(2R,6S,12Z,13aS,14aR,16aS)-9′-methoxy-14a-{[(1-methylcyclopropyl)sulfonyl]carbamoyl}-5,16-dioxo-5′-(trifluoromethyl)-1,1′,2′,5,6,7,8,9,10,11,13a,14,14a,15,16,16a-hexadecahydrospiro[cyclopropa[e]pyrrolo[1,2-a][1,4]diazacyclopentadecine-2,3′-pyrano[2,3-c]quinolin]-6-yl]carbamate], the IC50 in assay [1] (setting [7]) came to 0.006 nM; in assay [2] (setting [8]) it was 0.338 nM; in assay [3], 0.504 nM. For the same compound, the EC50 in the assay with HCV genotype 1b replicon (HCV replicon, genotype 1b) is 1.86 nM.
For `CCc1nc2ccc(OC)cc2c2c1O[C@]1(CC2)C[C@H]2C(=O)N[C@]3(C(=O)NS(=O)(=O)C4(C)CC4)C[C@H]3/C=C\CCCCC[C@H](NC(=O)O[C@H](C)C3CC3)C(=O)N2C1` [Example 502, (1R)-1-cyclopropylethyl [(2R,6S,12Z,13aS,14aR,16aS)-5′-ethyl-9′-methoxy-14a-{[(1-methylcyclopropyl)sulfonyl]carbamoyl}-5,16-dioxo-1,1′,2′,5,6,7,8,9,10,11,13a,14,14a,15,16,16a-hexadecahydrospiro[cyclopropa[e]pyrrolo[1,2-a][1,4]diazacyclopentadecine-2,3′-pyrano[2,3-c]quinolin]-6-yl]carbamate], the IC50 was determined as 0.004 nM in assay [1] (setting [7]), 0.121 nM in assay [2] (setting [8]) and 0.48 nM in assay [3]. Also, the EC50 in the assay with HCV genotype 1b replicon (HCV replicon, genotype 1b) amounted to 0.29 nM.
On to `COc1ccc2nc(C(F)(F)F)c3c(c2c1)CC[C@]1(C[C@H]2C(=O)N[C@]4(C(=O)NS(=O)(=O)C5(C)CC5)C[C@H]4/C=C\CCCCC[C@H](NC(=O)OCC(C)C)C(=O)N2C1)O3` [Example 6, Isobutyl ((2R,6S,13aS,14aR,16aS,Z)-9′-methoxy-14a-(((1-methylcyclopropyl)sulfonyl)carbamoyl)-5,16-dioxo-5′-(trifluoromethyl)-1′,2′,3,5,6,7,8,9,10,11,13a,14,14a, 15,16,16a-hexadecahydro-1H-spiro[cyclopropa[e]pyrrolo[1,2-a][1,4]diazacyclopentadecine-2,3′-pyrano[2,3-c]quinolin]-6-yl)carbamate], for which the IC50 turned out to be 0.016 nM in assay [1] (setting [9]), 0.591 nM in assay [2] and 0.53 nM in assay [3]. The EC50 in the assay on HCV genotype 1b replicon (genotype 1b replicon) turned out to be 1.23 nM.
Turning to `COc1ccc2nc(C)c3c(c2n1)CC[C@]1(C[C@H]2C(=O)N[C@]4(C(=O)NS(=O)(=O)C5(C)CC5)C[C@H]4/C=C\CCCCC[C@H](NC(=O)OCC(C)(C)C)C(=O)N2C1)O3` [Example 361, 2,2-dimethylpropyl [(2R,6S,12Z,13aS,14aR,16aS)-2′-methoxy-6′-methyl-14a-{[(1-methylcyclopropyl)sulfonyl]carbamoyl}-5,16-dioxo-1,5,6,7,8,9,9′,10,10′,11,13a,14,14a,15,16,16a-hexadecahydrospiro[cyclopropa[e]pyrrolo[1,2-a][1,4]diazacyclopentadecine-2,8′-pyrano[2,3-c][1,5]naphthyridin]-6-yl]carbamate], the IC50 in assay [1] (setting [7]) stood at 0.012 nM; in assay [2] (setting [8]) it was 0.241 nM; in assay [3], 0.433 nM. Also, the EC50 in the assay with HCV genotype 1b replicon (HCV replicon, genotype 1b) was found to be 4.43 nM.
